Source: patent US10556888B2, “Pyrazole compounds or salts thereof, preparation methods therefor, herbicidal compositions and use thereof” (QINGDAO KINGAGROOT CHEMICAL COMPOUNDS CO., LTD, priority 2015, dated 2020)

Assays:
[1] = test system: main crop (wheat, corn, rice, soybean, cotton, oilseed, millet and sorghum); assay: Post-emergence test experiment, main crops (Table 2); format: in vivo; set-up: key: Level 10: completely dead; Level 9: above 90% growth inhibition rate; Level 8: above 80% growth inhibition rate; Level 7: above 70% growth inhibition rate; Level 6: above 60% growth inhibition rate; Level 5: above 50% growth inhibition rate; Level 4: above 30% growth inhibition rate; Level 3: above 20% growth inhibition rate; Level 2: above 10% growth inhibition rate; Level 1: above 1-10% growth inhibition rate; Level 0: no effect; conditions: 3 weeks after spraying, greenhouse
Procedure, shortened: (§1)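 Weed and crop seeds (wheat, corn, rice, soybean, cotton, oilseed, millet, sorghum) grown in soil in greenhouse; sprayed at 2-3 leaf stage, 2-3 weeks after sowing, with compound in acetone/Tween 80/water. Effects assessed after 3 weeks further greenhouse culture.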

[2] = test system: Monocotyledonous and dicotyledonous weed; assay: Post-emergence test experiment, weed control effect (Table 2); format: in vivo; set-up: key to weed control effect, Setaria viridis (level) / weed control effect, Rorippa indica (level) / weed control effect, Abutilon theophrasti (level) / weed control effect, Echinochloa crus-galli (level) / weed control effect, Digitaria sanguinalis (level): Level 10: completely dead; Level 9: above 90% growth inhibition rate; Level 8: above 80% growth inhibition rate; Level 7: above 70% growth inhibition rate; Level 6: above 60% growth inhibition rate; Level 5: above 50% growth inhibition rate; Level 4: above 30% growth inhibition rate; Level 3: above 20% growth inhibition rate; Level 2: above 10% growth inhibition rate; Level 1: above 1-10% growth inhibition rate; Level 0: no effect; conditions: 3 weeks after spraying, greenhouse
Procedure, shortened: as §1

SMILES	effect on crop, corn (level) ([1]; 30 g/ha)	effect on crop, rice (level) ([1]; 30 g/ha)	effect on crop, wheat (level) ([1]; 30 g/ha)	weed control effect, Abutilon theophrasti (level) ([2]; 30 g/ha)	weed control effect, Bidens pilosa (level) ([2]; 30 g/ha)	weed control effect, Digitaria sanguinalis (level) ([2]; 30 g/ha)	weed control effect, Echinochloa crus-galli (level) ([2]; 30 g/ha)	weed control effect, Rorippa indica (level) ([2]; 30 g/ha)	weed control effect, Setaria viridis (level) ([2]; 30 g/ha)	effect on crop, corn (level) ([1]; 120 g/ha)	effect on crop, rice (level) ([1]; 120 g/ha)	effect on crop, wheat (level) ([1]; 120 g/ha)	weed control effect, Abutilon theophrasti (level) ([2]; 120 g/ha)	weed control effect, Bidens pilosa (level) ([2]; 120 g/ha)	weed control effect, Digitaria sanguinalis (level) ([2]; 120 g/ha)	weed control effect, Echinochloa crus-galli (level) ([2]; 120 g/ha)	weed control effect, Rorippa indica (level) ([2]; 120 g/ha)	weed control effect, Setaria viridis (level) ([2]; 120 g/ha)	further results
Cc1c(C(=O)c2c(C3CC3)nn(C)c2OC(=O)c2cnn(C)c2)ccc(S(C)(=O)=O)c1COCC(F)(F)F [Compound 78]	1 (Level 1: above 1-10% growth inhibition rate)	3 (Level 3: above 20% growth inhibition rate)	0	7 (Level 7: above 70% growth inhibition rate)	7 (Level 7: above 70% growth inhibition rate)	7 (Level 7: above 70% growth inhibition rate)	10	10	10										
Cc1cnn(Cc2c(S(C)(=O)=O)ccc(C(=O)c3c(C4CC4)nn(C)c3OC(=O)c3cnn(C)c3)c2Cl)c1 [Compound 22]										0	0	0	6 (Level 6: above 60% growth inhibition rate)	6 (Level 6: above 60% growth inhibition rate)	1 (Level 1: above 1-10% growth inhibition rate)	10	4 (Level 4: above 30% growth inhibition rate)	3 (Level 3: above 20% growth inhibition rate)	
Cc1nn(C)cc1C(=O)Oc1c(C(=O)c2ccc(S(C)(=O)=O)c(COCC(F)(F)F)c2Cl)c(C)nn1C(C)C [Compound 98]	1 (Level 1: above 1-10% growth inhibition rate)	5 (Level 5: above 50% growth inhibition rate)	0	5 (Level 5: above 50% growth inhibition rate)	7 (Level 7: above 70% growth inhibition rate)	8 (Level 8: above 80% growth inhibition rate)	10	10	10										
Cn1cc(C(=O)Oc2c(C(=O)c3ccc(S(C)(=O)=O)c(Cn4cc(Cl)cn4)c3Cl)c(C3CC3)nn2C)cn1 [Compound 18]										0	1 (Level 1: above 1-10% growth inhibition rate)	0	9 (Level 9: above 90% growth inhibition rate)	8 (Level 8: above 80% growth inhibition rate)	4 (Level 4: above 30% growth inhibition rate)	10	10	5 (Level 5: above 50% growth inhibition rate)	
CCc1nn(CC)c(OC(=O)c2cn(C)nc2C)c1C(=O)c1ccc(S(C)(=O)=O)c(COCC(F)F)c1Cl [Compound 94]																			effect on crop, corn (level) ([1]; 60 g/ha): 0; effect on crop, rice (level) ([1]; 60 g/ha): 3 (Level 3: above 20% growth inhibition rate); effect on crop, wheat (level) ([1]; 60 g/ha): 0; weed control effect, Abutilon theophrasti (level) ([2]; 60 g/ha): 10; weed control effect, Bidens pilosa (level) ([2]; 60 g/ha): 8 (Level 8: above 80% growth inhibition rate); weed control effect, Digitaria sanguinalis (level) ([2]; 60 g/ha): 8 (Level 8: above 80% growth inhibition rate); weed control effect, Echinochloa crus-galli (level) ([2]; 60 g/ha): 8 (Level 8: above 80% growth inhibition rate); weed control effect, Rorippa indica (level) ([2]; 60 g/ha): 10; weed control effect, Setaria viridis (level) ([2]; 60 g/ha): 10
CCn1nc(C)c(C(=O)c2ccc(S(C)(=O)=O)c(COCC(F)(F)C(F)F)c2C)c1OC(=O)c1cnn(C)c1 [Compound 85]	0	3 (Level 3: above 20% growth inhibition rate)	0	6 (Level 6: above 60% growth inhibition rate)	7 (Level 7: above 70% growth inhibition rate)	8 (Level 8: above 80% growth inhibition rate)	9 (Level 9: above 90% growth inhibition rate)	10	8 (Level 8: above 80% growth inhibition rate)										
C#CCOCc1c(S(C)(=O)=O)ccc(C(=O)c2c(C)nn(C)c2OC(=O)c2cn(C)nc2C)c1Cl [Compound 33]	1 (Level 1: above 1-10% growth inhibition rate)	5 (Level 5: above 50% growth inhibition rate)	0	7 (Level 7: above 70% growth inhibition rate)	7 (Level 7: above 70% growth inhibition rate)	9 (Level 9: above 90% growth inhibition rate)	9 (Level 9: above 90% growth inhibition rate)	5 (Level 5: above 50% growth inhibition rate)	9 (Level 9: above 90% growth inhibition rate)										
Cc1cnn(Cc2c(S(C)(=O)=O)ccc(C(=O)c3cnn(C(C)C)c3OC(=O)c3cn(C)nc3C)c2Cl)c1 [Compound 97]										0	0	0	6 (Level 6: above 60% growth inhibition rate)	6 (Level 6: above 60% growth inhibition rate)	1 (Level 1: above 1-10% growth inhibition rate)	10	4 (Level 4: above 30% growth inhibition rate)	3 (Level 3: above 20% growth inhibition rate)	
CCc1nn(C)c(C(=O)Oc2c(C(=O)c3ccc(S(C)(=O)=O)c(COCC(F)(F)F)c3Cl)cnn2C)c1Cl [Compound 105]																			effect on crop, corn (level) ([1]; 60 g/ha): 0; effect on crop, rice (level) ([1]; 60 g/ha): 4 (Level 4: above 30% growth inhibition rate); effect on crop, wheat (level) ([1]; 60 g/ha): 0; weed control effect, Abutilon theophrasti (level) ([2]; 60 g/ha): 10; weed control effect, Bidens pilosa (level) ([2]; 60 g/ha): 8 (Level 8: above 80% growth inhibition rate); weed control effect, Digitaria sanguinalis (level) ([2]; 60 g/ha): 9 (Level 9: above 90% growth inhibition rate); weed control effect, Echinochloa crus-galli (level) ([2]; 60 g/ha): 10; weed control effect, Rorippa indica (level) ([2]; 60 g/ha): 10; weed control effect, Setaria viridis (level) ([2]; 60 g/ha): 10
COCCOCc1c(S(C)(=O)=O)ccc(C(=O)c2c(C)nn(C)c2OC(=O)c2cn(C)nc2C)c1Cl [Compound 28]	0	6 (Level 6: above 60% growth inhibition rate)	0	7 (Level 7: above 70% growth inhibition rate)	7 (Level 7: above 70% growth inhibition rate)	7 (Level 7: above 70% growth inhibition rate)	9 (Level 9: above 90% growth inhibition rate)	5 (Level 5: above 50% growth inhibition rate)	5 (Level 5: above 50% growth inhibition rate)										
